Laboratory results taken from PMC9385959, “Mammalian derived lipocalin and secretoglobin respiratory allergens strongly bind ligands with potentially immune modulating properties” (Frontiers in Allergy, 2022).
Where two headings read alike, the source gives them in different places.

What was measured:
Can f 1 = target: T1, Can f 1 (Canis lupus familiaris, UniProt O18873); test: Fluorochrome binding to Can f 1 (emission spectra and titration); parameters: species or system dog
T1 construct: made in house; host or cells: E. coli Rosetta-gami 2(DE3)
T1 sequence (O18873 19-174): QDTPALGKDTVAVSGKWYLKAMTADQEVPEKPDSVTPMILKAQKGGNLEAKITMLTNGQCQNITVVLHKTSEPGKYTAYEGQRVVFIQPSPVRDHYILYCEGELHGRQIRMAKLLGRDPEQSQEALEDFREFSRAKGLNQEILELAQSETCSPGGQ
Experimental: Stock solutions were prepared at a concentration of 10 mM in 100% ethanol for the fluorochromes 1-aminoanthracene (1-AMA), 8-anilino-1-naphthalensulfonic acid (1,8-ANS) and for all ligands, and in 100% methanol for n-phenyl-1-naphthylamine (1-NPN), respectively. Iron catecholate ligands (siderophores) were prepared as previously described ([46]). Fluorochrome-protein complexes were analyzed at an equimolar concentration of 5 μM in PBS with 5% ethanol in a volume of 100 μL per well in black 96-well non-binding microplates (Greiner Bio-One GmbH, Frickenhausen, Germany). Solutions containing only protein or the respective fluorescent probe in PBS with 5% ethanol served as controls. Fluorochrome-protein complexes were incubated with orbital shaking for 10 min at 500 rpm at room temperature (RT) before measurement using the fluorescence reader TECAN Infinite 200 Pro (Tecan Trading AG, Switzerland). Excitation wavelengths were fixed at 380 nm for 1-AMA and 1,8-ANS, and 337 nm for 1-NPN. Fluorescence emission spectra were recorded in 5 nm steps between 420 and 560 nm for 1-AMA and 1,8-ANS and between 380 and 500 nm for 1-NPN. The establishment of fluorescent quenching assay parameters for each allergen is explained in the results Section Fluorescence-quenching assay set up. Binding affinities were analyzed by non-linear regression in GraphPad Prism Version 9.3.1 (GraphPad Software, LLC). For the ligand competition assays, ligands were added to fluorochrome-allergen complexes with a final buffer composition of 5% ethanol in PBS in a volume of 100 μL and incubated for 30 min at 500 rpm at RT and further equilibrated for another 30 min without shaking before fluorescence measurement. […]
For each allergen, we identified a suitable fluorescence probe by adding equimolar concentrations of either 1-AMA or 1,8-ANS to the recombinant proteins. […] Fluorescence intensities increased 20–60-fold upon binding. […] Respective Kd were calculated after background subtraction (Figure 4B). […]
We evaluated the binding affinities of the fluorochromes to the allergens by dose-dependent titration curves. […]

human LCN1 = target: T2, human LCN1 (Homo sapiens, UniProt P31025); test: Fluorochrome binding to LCN1 (emission spectra and titration); conditions: for Kd: multiple binding site analysis
T2 construct: made in house; host or cells: E. coli Rosetta-gami 2(DE3)
T2 sequence (P31025 19-176): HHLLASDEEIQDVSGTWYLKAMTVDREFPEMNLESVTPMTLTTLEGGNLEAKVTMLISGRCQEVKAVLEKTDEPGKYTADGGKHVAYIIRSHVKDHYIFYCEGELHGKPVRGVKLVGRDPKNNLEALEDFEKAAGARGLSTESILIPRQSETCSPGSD
Experimental: (§1) Stock solutions were prepared at a concentration of 10 mM in 100% ethanol for the fluorochromes 1-aminoanthracene (1-AMA), 8-anilino-1-naphthalensulfonic acid (1,8-ANS) and for all ligands, and in 100% methanol for n-phenyl-1-naphthylamine (1-NPN), respectively. Iron catecholate ligands (siderophores) were prepared as previously described ([46]). Fluorochrome-protein complexes were analyzed at an equimolar concentration of 5 μM in PBS with 5% ethanol in a volume of 100 μL per well in black 96-well non-binding microplates (Greiner Bio-One GmbH, Frickenhausen, Germany). Solutions containing only protein or the respective fluorescent probe in PBS with 5% ethanol served as controls. Fluorochrome-protein complexes were incubated with orbital shaking for 10 min at 500 rpm at room temperature (RT) before measurement using the fluorescence reader TECAN Infinite 200 Pro (Tecan Trading AG, Switzerland). Excitation wavelengths were fixed at 380 nm for 1-AMA and 1,8-ANS, and 337 nm for 1-NPN. Fluorescence emission spectra were recorded in 5 nm steps between 420 and 560 nm for 1-AMA and 1,8-ANS and between 380 and 500 nm for 1-NPN. The establishment of fluorescent quenching assay parameters for each allergen is explained in the results Section Fluorescence-quenching assay set up. Binding affinities were analyzed by non-linear regression in GraphPad Prism Version 9.3.1 (GraphPad Software, LLC). For the ligand competition assays, ligands were added to fluorochrome-allergen complexes with a final buffer composition of 5% ethanol in PBS in a volume of 100 μL and incubated for 30 min at 500 rpm at RT and further equilibrated for another 30 min without shaking before fluorescence measurement.
(§2) We established four specific parameters for each allergen to set up a fluorescence quenching assay for screening a large array of potential ligands: (i) a compatible fluorochrome, (ii) the optimal emission wavelength to analyze the fluorescence intensities of the fluorochrome-allergen complex, (iii) the binding affinities of the fluorochrome-allergen complex (Kd values) and (iv) optimal fluorochrome concentrations (EC50 values).
For each allergen, we identified a suitable fluorescence probe by adding equimolar concentrations of either 1-AMA or 1,8-ANS to the recombinant proteins. […] 1-AMA was chosen for the guinea pig lipocalin Cav p 1 isoallergens, rabbit lipocalin Ory c 2, and rabbit secretoglobin Ory c 3. Fluorescence intensities increased 20–60-fold upon binding. While the emission maxima shifted from 565 to 485 nm for lipocalin fluorochrome-allergen pairs, the blue shift was less pronounced for the Ory c 3 secretoglobin-1-AMA complex to 505 nm (Figure 4B). […] Respective Kd were calculated after background subtraction (Figure 4B). […]
We evaluated the binding affinities of the fluorochromes to the allergens by dose-dependent titration curves. […] Fluorescence intensities were recorded at specific emission maxima for each fluorochrome-allergen complex, determined using the emission spectra shown in Figure 4. We analyzed the specific binding of fluorochrome-allergen complexes by non-linear regression and calculated equilibrium dissociation constants (Kd) and EC50 values (Table 2). […] We chose a one-site specific binding model for all allergens, except for human LCN1, where multiple binding site analysis emerged as the model of best fit and two Kd values were calculated. […]

Fel d 1 = target: T3, Fel d 1 (Felis catus, UniProt P30438+P30440); test: Fluorochrome binding to Fel d 1 (emission spectra and titration); parameters: species or system cat; conditions: for Increase of fluorescence intensity upon binding: 5 μM Fel d 1 with 5 μM fluorochrome
T3 construct: polyhistidine tag (C); made in house; host or cells: E. coli Rosetta-gami 2
T3 sequence (P30438+P30440 with tags, fused parts or gaps): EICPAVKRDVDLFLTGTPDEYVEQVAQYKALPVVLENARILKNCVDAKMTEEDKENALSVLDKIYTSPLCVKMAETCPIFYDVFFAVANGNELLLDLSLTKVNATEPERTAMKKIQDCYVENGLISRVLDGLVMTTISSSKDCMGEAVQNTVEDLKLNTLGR
Experimental: as §1, §2
(§3) For each allergen, we identified a suitable fluorescence probe by adding equimolar concentrations of either 1-AMA or 1,8-ANS to the recombinant proteins. […] 1-AMA was chosen for the guinea pig lipocalin Cav p 1 isoallergens, rabbit lipocalin Ory c 2, and rabbit secretoglobin Ory c 3. Fluorescence intensities increased 20–60-fold upon binding. While the emission maxima shifted from 565 to 485 nm for lipocalin fluorochrome-allergen pairs, the blue shift was less pronounced for the Ory c 3 secretoglobin-1-AMA complex to 505 nm (Figure 4B). […] Respective Kd were calculated after background subtraction (Figure 4B). As ethanol gave a high background with 1-NPN, these experiments were carried out with methanol to […] the signal-to-noise-ratio.
(§4) We evaluated the binding affinities of the fluorochromes to the allergens by dose-dependent titration curves. Increasing fluorochrome concentrations were added to a fixed protein concentration of 5 μM until saturation (Figure 5). Fluorescence intensities were recorded at specific emission maxima for each fluorochrome-allergen complex, determined using the emission spectra shown in Figure 4. We analyzed the specific binding of fluorochrome-allergen complexes by non-linear regression and calculated equilibrium dissociation constants (Kd) and EC50 values (Table 2). EC50 values are equal to fluorochome concentrations in which half of the allergen binding sites are saturated and these concentrations were used in subsequent ligand competition assays. We chose a one-site specific binding model for all allergens, except for human LCN1, where multiple binding site analysis emerged as the model of best fit and two Kd values were calculated. Evidence for internal and external binding sites for 1,8-ANS and LCN1 were already reported ([58]).

Fel d 4 = target: T4, Fel d 4 (Felis catus, UniProt Q5VFH6); test: Fluorochrome binding to Fel d 4 (emission spectra and titration); parameters: species or system cat; conditions: for Increase of fluorescence intensity upon binding: 5 μM Fel d 4 with 5 μM fluorochrome
T4 construct: polyhistidine tag (C); made in house; host or cells: E. coli Rosetta-gami 2
T4 sequence (Q5VFH6 16-186): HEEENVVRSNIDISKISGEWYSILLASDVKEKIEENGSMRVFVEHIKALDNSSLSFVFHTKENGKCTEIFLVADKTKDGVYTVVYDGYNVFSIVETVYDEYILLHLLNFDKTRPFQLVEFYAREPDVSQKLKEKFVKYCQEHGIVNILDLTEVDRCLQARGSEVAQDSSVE
Experimental: as §1, §2, §3, §4

Can f 6 = target: T5, Can f 6 (Canis lupus familiaris, UniProt H2B3G5); test: Fluorochrome binding to Can f 6 (emission spectra and titration); parameters: species or system dog; conditions: for Increase of fluorescence intensity upon binding: 5 μM Can f 6 with 5 μM fluorochrome
T5 construct: polyhistidine tag (C); made in house; host or cells: E. coli Rosetta-gami 2
T5 sequence (H2B3G5 16-190): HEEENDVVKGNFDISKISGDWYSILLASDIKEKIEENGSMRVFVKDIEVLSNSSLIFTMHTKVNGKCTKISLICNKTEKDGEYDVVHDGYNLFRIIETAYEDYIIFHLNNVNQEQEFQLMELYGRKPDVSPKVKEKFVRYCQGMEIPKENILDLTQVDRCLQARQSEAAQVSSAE
Experimental: as §1, §2, §3, §4

O=S(=O)(O)c1cccc2cccc(Nc3ccccc3)c12 [1,8-ANS, 8-anilino-1-naphthalensulfonic acid]
EC50 (Can f 1; 5 μM Can f 1, half of the allergen binding sites saturated, read-out: EC50 fluorochrome concentration): 6.4 µM | Kd (Can f 1; 5 μM Can f 1, one-site specific binding, read-out: Fluorochrome dissociation constant Kd): 6.8 µM | Increase of fluorescence intensity upon binding (Can f 1; 5 μM Can f 1 with 5 μM fluorochrome): > 100 fold | Kd (human LCN1; 5 μM LCN1, first binding site, read-out: Fluorochrome dissociation constant Kd): 5 µM | Kd (human LCN1; 5 μM LCN1, second binding site, read-out: Fluorochrome dissociation constant Kd, second binding site): 64.7 µM | EC50 (human LCN1; 5 μM LCN1, read-out: EC50 fluorochrome concentration): 7.1 µM | Increase of fluorescence intensity upon binding (human LCN1; 5 μM LCN1 with 5 μM fluorochrome): > 100 fold | Kd at the second binding site relative to the first (higher Kd) (human LCN1; LCN1): 13 fold | Kd (Fel d 1; 5 μM Fel d 1, one-site specific binding, read-out: Fluorochrome dissociation constant Kd): 149 µM | EC50 (Fel d 1; 5 μM Fel d 1, read-out: EC50 fluorochrome concentration): 99.8 µM | Increase of fluorescence intensity upon binding (Fel d 1): 8 fold | Increase of fluorescence intensity upon binding (Fel d 4): neither reacted | Increase of fluorescence intensity upon binding (Can f 6): neither reacted

c1ccc(Nc2cccc3ccccc23)cc1 [1-NPN, n-phenyl-1-naphthylamine]
EC50 (Fel d 1): 21.1 µM | Kd (Fel d 1): 35.5 µM | Increase of fluorescence intensity upon binding (Fel d 1): 2–3 fold | Kd (Fel d 4; 5 μM Fel d 4, one-site specific binding, read-out: Fluorochrome dissociation constant Kd): 81.7 µM | EC50 (Fel d 4; 5 μM Fel d 4, read-out: EC50 fluorochrome concentration): 28 µM | Increase of fluorescence intensity upon binding (Fel d 4): 2–3 fold | Kd (Can f 6; 5 μM Can f 6, Figure 5C, read-out: Kd, one-site fit model of total and non-specific binding): 59.9 µM | Kd (Can f 6; 5 μM Can f 6, one-site specific binding, read-out: Fluorochrome dissociation constant Kd): 34.9 µM | EC50 (Can f 6; 5 μM Can f 6, read-out: EC50 fluorochrome concentration): 20.7 µM | Increase of fluorescence intensity upon binding (Can f 6): 2–3 fold
